Article PMC6934184, “Selective DNA-PKcs inhibition extends the therapeutic index of localized radiotherapy and chemotherapy” (The Journal of Clinical Investigation, 2019)

Biological target: T1, FGR (Homo sapiens, UniProt P09769)
T1 construct: purchased Thermo Fisher Scientific (Life Technologies) SelectScreen
Assay: SelectScreen Z'LYTE
Type: biochemical
Outline: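 SelectScreen broad panel; activity (Z'LYTE, Adapta) plus binding formats. ATP: Km app for CSF1R Z'LYTE; 10 for CAMK1 Adapta. Readout = % per kinase.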

T1 sequence (P09769 whole entry): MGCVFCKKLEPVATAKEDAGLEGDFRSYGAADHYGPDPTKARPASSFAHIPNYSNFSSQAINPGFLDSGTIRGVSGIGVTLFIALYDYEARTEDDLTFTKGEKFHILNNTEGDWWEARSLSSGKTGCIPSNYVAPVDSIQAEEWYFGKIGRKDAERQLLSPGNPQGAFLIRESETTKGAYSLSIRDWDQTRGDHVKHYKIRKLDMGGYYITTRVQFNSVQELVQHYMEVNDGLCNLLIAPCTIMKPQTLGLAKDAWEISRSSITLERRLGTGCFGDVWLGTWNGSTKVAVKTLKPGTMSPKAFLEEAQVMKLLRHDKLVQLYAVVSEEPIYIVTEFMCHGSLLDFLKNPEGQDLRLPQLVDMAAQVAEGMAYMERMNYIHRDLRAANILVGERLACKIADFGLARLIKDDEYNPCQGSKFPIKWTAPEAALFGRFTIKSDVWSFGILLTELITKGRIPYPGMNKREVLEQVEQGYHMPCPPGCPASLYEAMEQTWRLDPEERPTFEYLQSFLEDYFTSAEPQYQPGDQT

Structure (SMILES): CN(C(=O)CN1CCOCC1)c1ccc2sc3c(-c4cccc5c(=O)cc(N6CC7CCC(C6)O7)oc45)cccc3c2c1 [NU5455]
- inhibition at 1 µM: 12.1%
